Molecules are shown by their SMILES. Structures can show the parent of a compound that is named as a salt. A value given as a limit tells only on which side of the number the result lay.

`CNCC1=C(C#N)C(c2cccc3nonc23)c2c[nH]nc2N1.O=C(O)C(F)(F)F` (stereo not shown) displayed a melting point of 174 °C.

With `N#CC1=C(C2CCCNC2)Nc2n[nH]cc2C1c1cccc(C#N)c1Br.O=C(O)C(F)(F)F` (stereo not shown), the melting point stood at 225 °C.

For the molecule `N#CC1=C(C2CCCCN2)Nc2n[nH]cc2C1c1cccc(C#N)c1Br.O=C(O)C(F)(F)F` (stereo not shown), the melting point came to 232 °C.

Molecule `N#CC1=C(C2CNCCO2)Nc2n[nH]cc2C1c1cccc(C#N)c1Br.O=C(O)C(F)(F)F` (stereo not shown) yielded a melting point of 236 °C.

Consider `Cl.N#CC1=C(C2CCNCC2)Nc2n[nH]cc2C1c1cccc2nonc12` (stereo not shown), for which the melting point was > 270 °C.

Regarding `Cl.N#CC1=C(C2CCNCC2)Nc2n[nH]cc2C1c1cccc(C#N)c1Br` (stereo not shown), the melting point is > 270 °C.

As to `Cl.Cl.Cl.N#CC1=C(CN2CCN(c3cccc4ccccc34)CC2)Nc2n[nH]cc2C1c1ccccc1Cl` (stereo not shown), the melting point is 203 to 205 °C (dec.).

`CN1CCCN(CC2=C(C#N)C(c3ccccc3Cl)c3c[nH]nc3N2)CC1.Cl.Cl` (stereo not shown): the melting point is 204 to 206 °C (dec.).

Regarding `Cl.Cl.Cl.N#CC1=C(CN2CCN(c3ccccc3)CC2)Nc2n[nH]cc2C1c1ccccc1Cl` (stereo not shown), the melting point was 217 to 220 °C (dec.).

Take `CCCC1=C([N+](=O)[O-])C(c2ccccc2[N+](=O)[O-])c2c[nH]nc2N1` (stereo not shown): the melting point is 204 °C.

As to `CN1CCCC(C2=C(C#N)C(c3cccc(C#N)c3Br)c3c[nH]nc3N2)C1` (stereo not shown) (as salt: trifluoroacetate) [Example 1041, 4-(2-Bromo-3-cyanophenyl)-5-cyano-4,7-dihydro-6-(1-methylpiperidin-3-yl)-2H-pyrazolo[3,4-b]pyridine], the melting point came out at 174 °C.

Molecule `CN1CCOC(C2=C(C#N)C(c3cccc(C#N)c3Br)c3c[nH]nc3N2)C1` (stereo not shown) (as salt: trifluoroacetate) [Example 1046, 4-(2-Bromo-3-cyanophenyl)-5-cyano-4,7-dihydro-6-(4-methylmorpholin-2-yl)-2H-pyrazolo[3,4-b]pyridine] gave a melting point of 180 °C.

For `CN1CCC(C2=C(C#N)C(c3ccccc3Cl)c3c[nH]nc3N2)CC1` (stereo not shown) (as salt: trifluoroacetate) [Example 1056, 4-(2-Chlorophenyl)-5-cyano-4,7-dihydro-6-(1-methylpiperidin-4-yl)-2H-pyrazolo[3,4-b]pyridine], the melting point is > 270 °C.

In turn, `CCCC1=C(C(=O)OCC)C(c2cccc3nonc23)c2c[nH]nc2N1` (single isomer, unassigned; (+)) [Example 116, (+)Ethyl 4-(2,1,3-benzoxadiazol-4-yl)-4,7-dihydro-6-propyl-2H-pyrazolo[3,4-b]pyridine-5-carboxylate] came in with a melting point of 159 °C.

Take `CCCC1=C(C(=O)OCC)C(c2cccc3c2OCCC3)c2c[nH]nc2N1` (single isomer, unassigned; (+)) [Example 187, (+)Ethyl 4-(3,4-dihydro-2H-benzopyran-8-yl)-4,7-dihydro-6-propyl-2H-pyrazolo[3,4-b]pyridine-5-carboxylate]: the melting point lay within 159 to 161 °C.

In turn, `CCCC1=C(C(=O)OCC)C(c2cccc3nonc23)c2c[nH]nc2N1` (single isomer, unassigned; (-)) [Example 117, (−)Ethyl 4-(2,1,3-benzoxadiazol-4-yl)-4,7-dihydro-6-propyl-2H-pyrazolo[3,4-b]pyridine-5-carboxylate] registered a melting point of 160 °C.

Consider `CCCC1=C(C(=O)OCC)C(c2cccc3c2OCCC3)c2c[nH]nc2N1` (single isomer, unassigned; (-)) [Example 188, (−)Ethyl 4-(3,4-dihydro-2H-benzopyran-8-yl)-4,7-dihydro-6-propyl-2H-pyrazolo[3,4-b]pyridine-5-carboxylate], for which the melting point lay in the range of 160 to 161 °C.

The molecule `CCOC(=O)C1=C(C)Nc2n[nH]cc2C1c1ccccc1Cl` (stereo not shown) [Example 1, Ethyl 4-(2-chlorophenyl)-4,7-dihydro-6-methyl-2H-pyrazolo[3,4-b]pyridine-5-carboxylate] registered a melting point of 217 to 221 °C.

Take `CCOC(=O)C1=C(C)Nc2n[nH]cc2C1c1ccccc1OC` (stereo not shown) [Example 2, Ethyl 4,7-dihydro-4-(2-methoxyphenyl)-6-methyl-2H-pyrazolo[3,4-b]pyridine-5-carboxylate]: the melting point is 196 to 200 °C.

Molecule `CCOC(=O)C1=C(C)Nc2n[nH]cc2C1c1ccccc1C(F)(F)F` (stereo not shown) [Example 3, Ethyl 4,7-dihydro-6-methyl-4-(2-trifluoromethylphenyl)-2H-pyrazolo[3,4-b]pyridine-5-carboxylate] displayed a melting point of 259 to 262 °C.

On to `COC(=O)C1=C(C)Nc2n[nH]cc2C1c1ccccc1Cl` (stereo not shown) [Example 4, Methyl 4-(2-chlorophenyl)-4,7-dihydro-6-methyl-2H-pyrazolo[3,4-b]pyridine-5-carboxylate], for which the melting point amounted to 235 °C.

Consider `CC1=C(C(=O)OC(C)(C)C)C(c2ccccc2Cl)c2c[nH]nc2N1` (stereo not shown) [Example 5, t-Butyl 4-(2-chlorophenyl)-4,7-dihydro-6-methyl-2H-pyrazolo[3,4-b]pyridine-5-carboxylate], for which the melting point came to 207 °C.

For `CC1=C(C(=O)OCc2ccccc2)C(c2ccccc2Cl)c2c[nH]nc2N1` (stereo not shown) [Example 7, Benzyl 4-(2-chlorophenyl)-4,7-dihydro-6-methyl-2H-pyrazolo[3,4-b]pyridine-5-carboxylate], the melting point amounted to 234 °C.

In the case of `CC1=C(C(=O)N(C)C)C(c2ccccc2Cl)c2c[nH]nc2N1` (stereo not shown) [Example 8, 4-(2-Chlorophenyl)-5-dimethylaminocarbonyl-4,7-dihydro-6-methyl-2H-pyrazolo[3,4-b]pyridine], the melting point came to 229 °C.

Molecule `CC1=C(C(=O)NN)C(c2ccccc2Cl)c2c[nH]nc2N1` (stereo not shown) [Example 9, 4-(2-Chlorophenyl)-5-hydrazinocarbonyl-4,7-dihydro-6-methyl-2H-pyrazolo[3,4-b]pyridine] showed a melting point of 220 °C.

Take `CCOC(=O)C1=C(C(F)(F)F)Nc2n[nH]cc2C1c1ccccc1` (stereo not shown) [Example 12, Ethyl 4,7-dihydro-4-phenyl-6-trifluoromethyl-2H-pyrazolo[3,4-b]pyridine-5-carboxylate]: the melting point is 110 to 115 °C.

Take `CCOC(=O)C1=C(C(F)(F)F)Nc2n[nH]cc2C1c1ccccc1F` (stereo not shown) [Example 13, Ethyl 4-(2-fluorophenyl)-4,7-dihydro-6-trifluoromethyl-2H-pyrazolo[3,4-b]pyridine-5-carboxylate]: the melting point lay in the range of 119 to 120 °C.

Molecule `CCOC(=O)C1=C(C(F)(F)F)Nc2n[nH]cc2C1c1ccccc1Cl.O=C(O)/C=C\C(=O)O` (stereo not shown) [Example 14, Ethyl 4-(2-chlorophenyl)-4,7-dihydro-6-trifluoromethyl-2H-pyrazolo[3,4-b]pyridine-5-carboxylate maleate] registered a melting point of 171 to 172 °C.

As to `CCOC(=O)C1=C(C(F)(F)F)Nc2n[nH]cc2C1c1ccccc1OC` (stereo not shown) [Example 15, Ethyl 4,7-dihydro-4-(2-methoxyphenyl)-6-trifluoromethyl-2H-pyrazolo[3,4-b]pyridine-5-carboxylate], the melting point lay in the range of 144 to 146 °C.

As for `CCOC(=O)C1=C(C(F)(F)F)Nc2n[nH]cc2C1c1ccccc1C(F)(F)F` (stereo not shown) [Example 16, Ethyl 4,7-dihydro-6-trifluoromethyl-4-(2-trifluoromethylphenyl)-2H-pyrazolo[3,4-b]pyridine-5-carboxylate], the melting point was in the range of 182 to 186 °C.

Molecule `CCOC(=O)C1=C(C(F)(F)F)Nc2n[nH]cc2C1c1cccc(Cl)c1` (stereo not shown) [Example 17, Ethyl 4-(3-chlorophenyl)-4,7-dihydro-6-trifluoromethyl-2H-pyrazolo[3,4-b]pyridine-5-carboxylate] came in with a melting point of 144 to 145 °C.

`CCOC(=O)C1=C(C(F)(F)F)Nc2n[nH]cc2C1c1ccc(Cl)cc1` (stereo not shown) [Example 18, Ethyl 4-(4-chlorophenyl)-4,7-dihydro-6-trifluoromethyl-2H-pyrazolo[3,4-b]pyridine-5-carboxylate] displayed a melting point of 176 to 178 °C.

Consider `CCOC(=O)C1=C(C(F)(F)F)Nc2n[nH]cc2C1c1ccc(OC)cc1` (stereo not shown) [Example 19, Ethyl 4,7-dihydro-4-(4-methoxyphenyl)-6-trifluoromethyl-2H-pyrazolo[3,4-b]pyridine-5-carboxylate], for which the melting point was in the range of 159 to 161 °C.

As to `CCOC(=O)C1=C(C(F)(F)F)Nc2n[nH]cc2C1c1ccc(C(=O)OCC)cc1` (stereo not shown) [Example 20, Ethyl 4-(4-ethoxycarbonylphenyl)-4,7-dihydro-6-trifluoromethyl-2H-pyrazolo[3,4-b]pyridine-5-carboxylate], the melting point lay within 157 to 160 °C.

With `CCOC(=O)C1=C(C(F)(F)F)Nc2n[nH]c(C)c2C1c1ccccc1Cl` (stereo not shown) [Example 21, Ethyl 4-(2-chlorophenyl)-4,7-dihydro-3-methyl-6-trifluoromethyl-2H-pyrazolo[3,4-b]pyridine-5-carboxylate], the melting point was in the range of 165 to 168 °C.

The molecule `CCOC(=O)C1=C(C(F)(F)F)Nc2n[nH]cc2C1c1cccs1` (stereo not shown) [Example 22, Ethyl 4,7-dihydro-4-(thiophen-2-yl)-6-trifluoromethyl-2H-pyrazolo[3,4-b]pyridine-5-carboxylate] registered a melting point of 157 to 161 °C.

As to `CCOC(=O)C1=C(C(F)(F)F)Nc2n[nH]cc2C1c1ccsc1` (stereo not shown) [Example 23, Ethyl 4,7-dihydro-4-(thiophen-3-yl)-6-trifluoromethyl-2H-pyrazolo[3,4-b]pyridine-5-carboxylate], the melting point lay in the range of 140 to 145 °C.

In turn, `CCOC(=O)C1=C(C(F)(F)F)Nc2n[nH]cc2C1c1cccc2ccccc12` (stereo not shown) [Example 24, Ethyl 4,7-dihydro-4-(1-naphthyl)-6-trifluoromethyl-2H-pyrazolo[3,4-b]pyridine-5-carboxylate] displayed a melting point of 119 to 120 °C.

`CCCC1=C(C(=O)OCC)C(c2ccccc2)c2c[nH]nc2N1.O=C(O)/C=C\C(=O)O` (stereo not shown) [Example 25, Ethyl 4,7-dihydro-4-phenyl-6-propyl-2H-pyrazolo[3,4-b]pyridine-5-carboxylate maleate] gave a melting point of 139 to 141 °C.

`CCCC1=C(C(=O)OCC)C(c2ccccc2F)c2c[nH]nc2N1` (stereo not shown) [Example 26, Ethyl 4-(2-fluorophenyl)-4,7-dihydro-6-propyl-2H-pyrazolo[3,4-b]pyridine-5-carboxylate] had a melting point of 192 to 194 °C.

What is called melting point is the temperature of the solid-liquid transition.

The values are drawn from US6977262B2, “Dihydropyrazolopyridine compounds and pharmaceutical use thereof” (Mitsubishi Pharma Corporation, priority 2001, dated 2005).
